Consider 1 substance from patent publication US20260226101A1, “PEPTIDE WITH ANTI-INFLAMMATORY AND ANTI-MICROBIAL ACTIVITY” (priority 2023, published 2026).

Ends that are not written are not given here.

One data set concerns BALB/C mice. Nature of the data set: Acute toxicity study, single dose. The format is in vivo. As for the experimental part:
Once after acclimation period, a total of forty mice for IV route of administration, forty mice (half male and half female)/route were randomized based on bodyweight divided into four groups (10 in each group/per route, in each group 5 per sex) per strain via IV route of administration; prior to dosing initiation (table 12). On the day of dosing (designated as Day 0 of the study), the mice were 6 weeks old, and their body weights ranged from 20 to 25 g. The dosing volume was 0.1 ml per mice and the actual volume of peptide IS 111 solution administered was calculated based on body weight measurements obtained on the day of administration and was administered IV in increasing doses of the synthetic test peptide IS 111 0.6, 2.4, & 4.8 mg/kg; (administration once). The routes of administration were the same proposed for use in humans [Food and Drug Administration, 1988]. Prior to dosing the animals were deprived of food for 12 hours but had free access to drinking water. […]
After a single dose administration, mortality and clinical signs associated with toxicity were observed and recorded daily for consecutive two weeks; body weight changes were measured before and after administration on the 14th day. The animals were observed frequently during the first 4-6-hour period following dose administration and once daily, thereafter, for […], during which animals were evaluated for mortality, clinical signs of toxicity, and behavior. […] The number of animals killed for each of the doses was noted and the LD50 calculated by the Up and Down method, which is one of the most used to reduce the number of animals used [P. A. Botham, 2004]. […]
The mortality, general health status, and toxic reaction symptoms of the experimental groups were documented. Before the first day of IS 111 administration and during the experiments, a detailed clinical observation was carried out and recorded the changes in skin, eyes and mucous membrane, respiratory system, nervous system, activity, and behaviors of the […]. The body weight was measured and recorded before the first day of administration.

In data set [1] the test system is E. coli ATCC 8739-induced septic peritonitis. Nature of the data set: E. coli-induced septic peritonitis model. The format is in vivo, BALB/c mice. The following applies: for Mice alive: 18 h after infection. On the procedure: Bacterial strain of E. coli ATCC 8739™ were maintained in our laboratory and used for the mouse sepsis model. The strain was previously stored at −80° C. in a Luria Bertani (LB) broth with 15-20% of glycerol. Single colonies from viable, growing Luria-Bertani (LB) agar plates were transferred to sterile liquid LB medium (containing 10 g tryptone, 10 g NaCl, and 5 g yeast extract per liter) and cultivated aerobically in 50-ml volumes at 37° C. in an orbital shaker for 24 h at 37° C. These cultures were transferred to 500 ml of fresh LB medium for another 12 h. The optical density (OD) of the suspension was adjusted to 0.3 (exponential phase) using a spectrophotometer. Such OD corresponds to*10^8 colony-forming units (CFU)/mL. When bacteria were in the log phase of growth, the suspension was harvested by centrifugation at 1500×g for 5 min at 4° C.; the supernatant was discarded and washed and resuspended three times in phosphate-buffered saline (PBS) at pH 7.4 and mixed by vortexing to achieve a concentration of approximately 1×10^8 colony-formation units (CFU) per milliliter. Finally, the bacterial suspensions were incubated in a water bath at 100° C. for 30 min to inactivate the cells. One hundred microliters of the suspension were serially diluted with sterile saline solution, plated on sheep blood agar plates, and incubated for 18 hours for determination of the bacterial concentration. The rest of the culture suspension was stored at 4° C. until use. Just before the intraperitoneal injection, the bacterial suspension was adjusted to a concentration of 1×10^8 colony forming units (CFU) per 0.1 mL with normal saline solution/PBS.
This study was carried out within an animal containment BSL2 facility. The animals were infected with suspensions containing […] E. coli 8739™ (200 μL) inoculated intraperitoneally. The day of challenge was designated as day 1 of the experiment and considers it as 0 hr. [Wendy E. Walker, 2021; Komal Dolasia et al., 2018]
Mice received an intraperitoneal injection of E. coli ATCC 8739, 5.0×10^8 CFU per mouse in 200 μL to induce septic peritonitis as mentioned above. After 2 h of the E. coli infection, mice (n=6) were treated intravenously with two test doses of IS 111 (0.6 mg/kg & 1.2 mg/kg) in treatment groups. Control animals received 200 μL of normal saline. […] The figure was adopted and modified according to the present study. [Henrique G et al., 2020].
In all the animal experiments, IS 111 were administered by intravenous injections respectively; According to the clinical dosage regimen, IS 111 was repeatedly administered at 2 h after the intraperitoneal injection of heat-killed E. coli. The survival of mice was monitored for up to 5 days. In each group the half of the animals were killed after 18 hours. And in other subset of the animals, IS 111 at two doses 0.6 & 1.2 mg/kg were injected IV daily for 3 days following infection. The survival of mice was monitored for up to 18 h and the other half of the animals are continued for the survival monitored up to 5 days.
In the survival study, survival rates were determined over a period of 5 d with assessment every 12 h, by setting the day 0 from 0 to 18 h after surgery and continuing observation until […]. In each group the half of the animals were killed after 18 hours, in another half subset of animals was followed for 5 days for survival assessment after sepsis induction to verify mortality rates. IS 111 at two doses 0.6 & 1.2 mg/kg were injected IV daily 24 h for 3 days following the E. coli Infection.
The physical activity of the mice was recorded independently by two independent observers who were blinded to treatment before sampling as previously described. In this study predetermined grading system was used with a scale of 1 (healthy) to 5 (agony). […]

Where [2] appears, read: 0.6 mg/kg IV, 18 hr after induction of septic shock.
Setting [3] is: 18 h, comparable to control mice.
Setting [4] is: serum 18 h, therapeutic administration.

For “FAKKFAK [IS 111, Phe-Ala-Lys-Lys-Phe-Ala-Lys]”, the “Adverse reaction in acute toxicity tests” value with BALB/C mice (any of the concentrations) was “no adverse reaction”. For the same substance, in the data set with BALB/C mice (single dose 0.6, 2.4, 4.8 mg/kg, 14 days), the Mortality result is reported as “No mortality”. Also, the “Body weight and organ weights” value with BALB/C mice (single dose 0.6/2.4/4.8 mg/kg, intravenous) was “no changes”. In addition, the “Lung and liver injuries (histopathology)” value in data set [1] (0.6 mg/kg IV, 18 h) is recorded as “reduces the injuries to moderate extent”. In data set [1] (setting [2]), the Activity upon stimulation entry is recorded as “Sluggish activity. Animals”, the Conjunctivitis result is recorded as “Mild (Usually serous” and the Hair coat entry was “Moderately ruffled coats”. The substance further had a Mice alive in data set [1] (0.6 mg/kg) of 50%. In data set [1] (setting [3]), the Lymphocyte numbers result is listed as “restored” and the WBC numbers result is “restored”. Moreover, the Neutrophil numbers entry in data set [1] (18 h, vs septic mice) is reported as “marginally higher”. This substance registered a Mice alive in data set [1] ([…]) of 80%. Also, the Survival in data set [1] (after 7 days of infection, IS 111 treatment groups) came to 80%. Also, in data set [1] (setting [4]), the IL-1b level result is given as “significantly reduce”, the IL-6 level entry is “significantly reduce”, the “IL-12 p70 level” value is recorded as “significantly reduce” and the TNF-α level entry is recorded as “significantly reduce”. This substance also returned a Reduction of mortality in data set [1] (vs diseased control animals (normal saline)) of 80%.
